Several values for one entry are separate records, joined by “and”; a condition that tells them apart may be missing. Equal values may be shown once. Inconclusive results and toxic doses are left out. Rule as the data show it: active = T/C of 150% or more; inactive = T/C below 125%. Peptide text beside a SMILES is read from it. * marks the point of attachment. Cbz = O=C(OCc1ccccc1)*
System: L1210 leukemia ip in BDF1 mice, survival T/C
Assay: NCI In Vivo Anticancer Drug Screen. Data for tumor model L1210 Leukemia (intraperitoneal) in B6D2F1 (BDF1) mice
Details: endpoint: mean survival time, higher = longer survival
In short: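 Survival endpoint. Drug-treated group vs vehicle group, expressed as T divided by C. Tumor passaged by transplantation.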

[1] = dose: 50.0 mg/kg/injection, schedule: Q01DX001 (ip), vehicle: carboxymethylcellulose (CMC)
[2] = dose: 100.0 mg/kg/injection, schedule: Q01DX001 (ip), vehicle: carboxymethylcellulose (CMC)
[3] = dose: 200.0 mg/kg/injection, schedule: Q01DX001 (ip), vehicle: carboxymethylcellulose (CMC)
[4] = dose: 400.0 mg/kg/injection, schedule: Q01DX001 (ip), vehicle: carboxymethylcellulose (CMC)
[5] = dose: 100.0 mg/kg/injection, schedule: Q01DX001 (ip), vehicle: saline
[6] = dose: 200.0 mg/kg/injection, schedule: Q01DX001 (ip), vehicle: saline
[7] = dose: 100.0 mg/kg/injection, schedule: Q01DX009 (ip), vehicle: saline
[8] = dose: 100.0 mg/kg/injection, schedule: Q04DX003 (ip), vehicle: saline
[9] = dose: 200.0 mg/kg/injection, schedule: Q01DX009 (ip), vehicle: saline
[10] = dose: 200.0 mg/kg/injection, schedule: Q04DX003 (ip), vehicle: saline
[11] = dose: 400.0 mg/kg/injection, schedule: Q01DX009 (ip), vehicle: saline
[12] = dose: 400.0 mg/kg/injection, schedule: Q04DX003 (ip), vehicle: saline
[13] = dose: 100.0 mg/kg/injection, schedule: Q01DX009 (ip), vehicle: saline with Tween-80
[14] = dose: 100.0 mg/kg/injection, schedule: Q04DX003 (ip), vehicle: saline with Tween-80
[15] = dose: 200.0 mg/kg/injection, schedule: Q01DX009 (ip), vehicle: saline with Tween-80
[16] = dose: 200.0 mg/kg/injection, schedule: Q04DX003 (ip), vehicle: saline with Tween-80
[17] = dose: 400.0 mg/kg/injection, schedule: Q01DX009 (ip), vehicle: saline with Tween-80
[18] = dose: 400.0 mg/kg/injection, schedule: Q04DX003 (ip), vehicle: saline with Tween-80

Measured: T/C

CCn1cnc2cc(N=Cc3ccc(N(CCCl)CCCl)cc3)ccc21
inactive: dose: 56.3 mg/kg/injection, schedule: Q04DX002 (ip), vehicle: saline 106 % of control | dose: 112.5 mg/kg/injection, schedule: Q04DX002 (ip), vehicle: saline 117 % of control | dose: 225.0 mg/kg/injection, schedule: Q04DX002 (ip), vehicle: saline 102 % of control

Cc1ccc(S)cc1.[Pb]
inactive: [1] 98 % of control | [2] 93 % of control | [3] 103 % of control | [4] 93 % of control

CC(NP1(=O)OCC(C)([N+](=O)[O-])CO1)c1ccccc1 (centres undefined)
inactive: [1] 97 % of control | [2] 113 % of control | [3] 115 % of control | [4] 95 % of control

COc1cc(-c2ccc(-[n+]3nc(-c4ccc([N+](=O)[O-])cc4)nn3-c3ccc([N+](=O)[O-])cc3)c(OC)c2)ccc1-[n+]1nc(-c2ccc([N+](=O)[O-])cc2)nn1-c1ccc([N+](=O)[O-])cc1
inactive: dose: 15.0 mg/kg/injection, schedule: Q01DX001 (ip), vehicle: carboxymethylcellulose (CMC) 89 % of control | dose: 30.0 mg/kg/injection, schedule: Q01DX001 (ip), vehicle: carboxymethylcellulose (CMC) 104 % of control | dose: 60.0 mg/kg/injection, schedule: Q01DX001 (ip), vehicle: carboxymethylcellulose (CMC) 93 % of control

O=C(Nc1nccs1)c1ccc(C(=O)Nc2nccs2)cc1
inactive: dose: 15.0 mg/kg/injection, schedule: Q01DX Z (ip), vehicle: carboxymethylcellulose (CMC) 93 % of control | dose: 30.0 mg/kg/injection, schedule: Q01DX Z (ip), vehicle: carboxymethylcellulose (CMC) 100 % of control | dose: 60.0 mg/kg/injection, schedule: Q01DX Z (ip), vehicle: carboxymethylcellulose (CMC) 100 % of control | dose: 120.0 mg/kg/injection, schedule: Q01DX Z (ip), vehicle: carboxymethylcellulose (CMC) 100 % of control and 90 % of control | dose: 180.0 mg/kg/injection, schedule: Q01DX Z (ip), vehicle: carboxymethylcellulose (CMC) 96 % of control | dose: 270.0 mg/kg/injection, schedule: Q01DX Z (ip), vehicle: carboxymethylcellulose (CMC) 96 % of control | dose: 400.0 mg/kg/injection, schedule: Q01DX Z (ip), vehicle: carboxymethylcellulose (CMC) 95 % of control

Cc1ccc(S(=O)(=O)c2ccccc2C)s1
inactive: [5] 97 % of control | dose: 100.0 mg/kg/injection, schedule: Q04DX003 (ip), vehicle: acetone 94 % of control | [6] 98 % of control | dose: 200.0 mg/kg/injection, schedule: Q04DX003 (ip), vehicle: acetone 98 % of control | dose: 400.0 mg/kg/injection, schedule: Q01DX001 (ip), vehicle: saline 93 % of control | dose: 400.0 mg/kg/injection, schedule: Q04DX003 (ip), vehicle: acetone 94 % of control

COC(=O)CNC(=O)CNC(=O)OCc1ccccc1 (Cbz-Gly-Gly-OMe)
inactive: [7] 102 % of control | [8] 102 % of control | [9] 100 % of control | [10] 98 % of control | [11] 102 % of control | [12] 107 % of control

c1cc[c]([Pb]([S]c2ncnc3c2nc[n]3[Pb]([c]2ccccc2)([c]2ccccc2)[c]2ccccc2)([c]2ccccc2)[c]2ccccc2)cc1.c1cc[c]([Pb]([S]c2ncnc3nc[nH]c23)([c]2ccccc2)[c]2ccccc2)cc1
inactive: dose: 5.0 mg/kg/injection, schedule: Q01DX001 (ip), vehicle: other 103 % of control | dose: 10.0 mg/kg/injection, schedule: Q01DX001 (ip), vehicle: other 121 % of control

O=C(O)C(c1cccs1)c1cccs1
inactive: [13] 102 % of control | [14] 102 % of control | [15] 88 % of control | [16] 92 % of control | [17] 105 % of control | [18] 103 % of control

Nc1cccnc1NCC(O)c1ccccc1 (centres undefined)
inactive: [5] 103 % of control | [6] 97 % of control

Nc1cc(Cl)c(O)c(Cl)c1
inactive: dose: 12.5 mg/kg/injection, schedule: Q01DX015 (ip), vehicle: saline 97 % of control | dose: 25.0 mg/kg/injection, schedule: Q01DX001 (ip), vehicle: saline with Tween-80 93 % of control | dose: 25.0 mg/kg/injection, schedule: Q01DX015 (ip), vehicle: saline 100 % of control | dose: 50.0 mg/kg/injection, schedule: Q01DX001 (ip), vehicle: saline with Tween-80 92 % of control | dose: 50.0 mg/kg/injection, schedule: Q01DX015 (ip), vehicle: saline 97 % of control | [2] 93 % of control | [5] 93 % of control | dose: 100.0 mg/kg/injection, schedule: Q01DX015 (ip), vehicle: saline 91 % of control

CC(=O)c1ccc2c(c1)Nc1ccccc1S2
inactive: dose: 50.0 mg/kg/injection, schedule: Q04DX003 (ip), vehicle: Klucel (hydroxypropylcellulose) (HPC) 97 % of control | dose: 100.0 mg/kg/injection, schedule: Q01DX009 (ip), vehicle: Klucel (hydroxypropylcellulose) (HPC) 104 % of control and 102 % of control | dose: 100.0 mg/kg/injection, schedule: Q04DX003 (ip), vehicle: Klucel (hydroxypropylcellulose) (HPC) 101 % of control | dose: 200.0 mg/kg/injection, schedule: Q01DX009 (ip), vehicle: Klucel (hydroxypropylcellulose) (HPC) 106 % of control and 94 % of control | dose: 200.0 mg/kg/injection, schedule: Q04DX003 (ip), vehicle: Klucel (hydroxypropylcellulose) (HPC) 102 % of control | dose: 400.0 mg/kg/injection, schedule: Q01DX009 (ip), vehicle: Klucel (hydroxypropylcellulose) (HPC) 95 % of control and 91 % of control | dose: 400.0 mg/kg/injection, schedule: Q04DX003 (ip), vehicle: Klucel (hydroxypropylcellulose) (HPC) 91 % of control

NC(Cc1c[nH]c2ccccc12)C(=O)OCc1ccccc1 (centres undefined)
inactive: dose: 6.25 mg/kg/injection, schedule: Q01DX009 (ip), vehicle: water 101 % of control | dose: 12.5 mg/kg/injection, schedule: Q01DX009 (ip), vehicle: water 99 % of control | dose: 25.0 mg/kg/injection, schedule: Q01DX009 (ip), vehicle: water 98 % of control and 106 % of control | dose: 50.0 mg/kg/injection, schedule: Q01DX009 (ip), vehicle: water 107 % of control | [13] 104 % of control | dose: 100.0 mg/kg/injection, schedule: Q01DX009 (ip), vehicle: water 97 % of control and 86 % of control | [15] 104 % of control | [17] 93 % of control

CCOC(=O)c1cc(=O)ss1
inactive: dose: 50.0 mg/kg/injection, schedule: Q01DX009 (ip), vehicle: saline with Tween-80 100 % of control | [13] 101 % of control | [14] 96 % of control | [15] 92 % of control | [16] 97 % of control | [17] 94 % of control | [18] 106 % of control

O=C1OC(c2cccc(Cl)c2)=N/C1=C\c1ccc(O)cc1
inactive: dose: 100.0 mg/kg/injection, schedule: Q04DX002 (ip), vehicle: saline with Tween-80 118 % of control | dose: 200.0 mg/kg/injection, schedule: Q04DX002 (ip), vehicle: saline with Tween-80 100 % of control | dose: 400.0 mg/kg/injection, schedule: Q04DX002 (ip), vehicle: saline with Tween-80 104 % of control

Nc1ccccc1C1OCCO1
inactive: [1] 95 % of control | [2] 95 % of control | [3] 95 % of control | [4] 101 % of control

O=C1CC(c2ccccc2)=CN1c1ccc(Cl)cc1
inactive: dose: 100.0 mg/kg/injection, schedule: Q04DX002 (ip), vehicle: Klucel (hydroxypropylcellulose) (HPC) 89 % of control | dose: 200.0 mg/kg/injection, schedule: Q04DX002 (ip), vehicle: Klucel (hydroxypropylcellulose) (HPC) 104 % of control | dose: 400.0 mg/kg/injection, schedule: Q04DX002 (ip), vehicle: Klucel (hydroxypropylcellulose) (HPC) 112 % of control

OCC(CO)(CO)CBr
inactive: [7] 96 % of control | [8] 103 % of control | [9] 105 % of control | [10] 98 % of control | [11] 104 % of control | [12] 104 % of control
